{
  "source": "patent US5175283A",
  "about": "“Azetidin-2-one derivatives as serine protease inhibitors” (Bristol-Myers Squibb Company, priority 1992, dated 1992)",
  "key": {"[1]": {"system": "Thrombin Induced Clotting Time", "assay": "Thrombin induced clotting time ex vivo in plasma of i.p. dosed rats", "conditions": "rat, 50 mg/kg i.p.; for Thrombin Induced Clotting Time (1:4 Control Plasma): plasma diluted 1:4 with control plasma; for Thrombin Induced Clotting Time, terminated samples / Thrombin Induced Clotting Time: undiluted plasma, per animal", "procedure": "Procedure for Determining the Concentration Required for Doubling Thrombin Clotting Time--Clotting Time Assays\n(§1) The following reagents were used in these assays:\nOwren's Veronal Buffer: 125 mM NaCl, 28.4 mM sodium barbital, pH 7.35.\nHuman citrated plasma obtained from human volunteers or citrated plasma obtained from IP-dosed animals (prepared as described below).\n25 NIH Units/ml human α-thrombin in thrombin buffer for use with rat plasma.\nTest compound was prepared just prior to dosing. Routinely the drugs are dissolved in water. Animals were dosed by i.p. injection.\nAfter the appropriate time period, the animals were ether-anesthetized, and blood was drawn by cardiac puncture using 333 μl of 3.8% sodium citrate per 3 ml blood. After all of the samples were obtained, the tubes were centrifuged at 1,500 rpm for 15 min as described for the human blood samples.\nClotting Time Measurement\nClotting times were determined by pipetting 0.1 ml of Owren's buffer (pre-warmed 37° C.) and 0.1 ml of human or rat plasma into yellow sample cuvettes. For studies with human plasma 10 U/ml human thrombin (10 ml) was placed in the reservoir assembly station of the MLA 700. (Medical Laboratory Automation, Electra 700 Reservoir Assembly). For rat studies, the human thrombin concentration was 25 U/ml. The cuvettes were vortexed and then placed on the MLA 700 sample wheel. The coagulation timer (MLA 700) automatically dispenses 0.1 ml human thrombin into the sample in each cuvette. Detection of the fibrin clot was determined optically by the MLA 700.\nIn separate studies, two compounds, Compound XIX and Compound XI, were dosed 50 mg/kg I.P. to three rats in each study group. […] \"Term\" indicates \"terminated sample\" where a clot was unable to form after approximately 99 seconds. When this occurred, the animal plasma was diluted 1: 1 with control rat plasma and the sample tested again. If need, the animal plasma was diluted 1:4 and tested again."}, "human α-thrombin [2]": {"target": "T1, human α-thrombin (Homo sapiens, UniProt P00734)", "T1 construct": "purified human α-thrombin dissolved in thrombin assay buffer", "assay": "Concentration required for doubling thrombin clotting time in human plasma", "type": "biochemical", "conditions": "human citrated plasma, 10 U/ml human thrombin; read-out: ED50, drug concentration required to double clotting time", "procedure": "Procedure for Determining the Concentration Required for Doubling Thrombin Clotting Time--Clotting Time Assays The following reagents were used in these assays: Owren's Veronal Buffer: 125 mM NaCl, 28.4 mM sodium barbital, pH 7.35. Human citrated plasma obtained from human volunteers or citrated plasma obtained from IP-dosed animals (prepared as described below). 10 NIH Units/ml human α-thrombin in thrombin buffer for use with human plasma. […] The blood was centrifuged at […] (480×g) for 15 min at room temperature (using a Sorvall RT 6000B centrifuge). The plasma was removed, pooled, and aliquoted into small tubes which were stored frozen for later use. Clotting Time Measurement Clotting times were determined by pipetting 0.1 ml of Owren's buffer (pre-warmed 37° C.) and 0.1 ml of human or rat plasma into yellow sample cuvettes. For studies with human plasma 10 U/ml human thrombin (10 ml) was placed in the reservoir assembly station of the MLA 700. (Medical Laboratory Automation, Electra 700 Reservoir Assembly). For rat studies, the human thrombin concentration was 25 U/ml. The cuvettes were vortexed and then placed on the MLA 700 sample wheel. The coagulation timer (MLA 700) automatically dispenses 0.1 ml human thrombin into the sample in each cuvette. Detection of the fibrin clot was determined optically by the MLA 700. Studies were performed to determine the concentration of drug which caused a doubling of the clotting time in human plasma. From standard curves of thrombin activity added to the sample versus the clotting time, the concentration of drug which caused a doubling of the thrombin clotting time corresponded to inhibition of approximately 1/2 of the added thrombin clotting activity. Results are reported in Table 1 as ED50 values, i.e., the drug concentration required to double clotting time."}, "human α-thrombin [3]": {"target": "T1, human α-thrombin", "assay": "Enzyme assay for the inhibition of thrombin (s-2238 substrate)", "type": "biochemical", "procedure": "1. Enzyme Assays for the Inhibition of Thrombin The following reagents were used in these assays: Thrombin assay buffer: 145 mM NaCl, 5 mM KCl, 30 mM N-2-hydroxyethyl piperazine-N'-2-ethanesulfonic acid, pH 7.4, 1 mg/ml polyethylene glycol (PEG-8000). 3 mM D-Phe-Pip-Arg-p-nitroanilide (s-2238) in H2 O. 3 U/ml purified human α-thrombin dissolved in thrombin assay buffer. Inhibitors to be tested were dissolved in H2 O, methanol, or DMSO just prior to use. Assay Procedure To each well in a 96-well microtiter plate, 270 μl of assay buffer was added. Human α-thrombin (10 μl of 3 U/ml) was added, then 10 μl of inhibitor were added and mixed. The samples were incubated at room temperature for a defined period of time (3 min for initial IC50 determinations). The enzymic reaction was started with 10 μl of 3 mM s-2238 substrate and continued at room temperature. The change in optical density was measured at 405 nm. A kinetic microplate reader (Molecular Devices Corporation Vmax) was used to measure the change in optical density over time. Results are reported in Table 1 as IC50 values, i.e., the drug concentration in mole/liter which caused 50% inhibition of the enzyme activity (after incubation of the drug with the enzyme for 3 min). Alternatively, results are also reported in Table 1 expressed as k2 /ki which is the second order rate constant in per mole per minute for inactivation time of the enzyme [Kitz, et al., J. Biol. Chem., 237, 3245 (1962)]."}, "[4]": {"target": "T2, bovine pancreatic trypsin (Bos taurus, UniProt P00760)", "T2 construct": "purified bovine pancreatic trypsin dissolved in trypsin assay buffer", "T2 sequence (P00760 24-246)": "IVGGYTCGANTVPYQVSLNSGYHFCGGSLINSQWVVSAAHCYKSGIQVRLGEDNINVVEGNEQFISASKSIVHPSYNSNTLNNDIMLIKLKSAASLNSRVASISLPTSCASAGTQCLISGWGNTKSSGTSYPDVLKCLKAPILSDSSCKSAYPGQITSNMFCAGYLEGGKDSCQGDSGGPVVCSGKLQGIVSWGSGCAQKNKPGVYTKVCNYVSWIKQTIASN", "assay": "Enzyme assay for the inhibition of trypsin (Z-Val-Gly-Arg-pNA substrate)", "type": "biochemical", "conditions": "3 min incubation of drug with enzyme, room temperature, pH 8.0; read-out: Trypsin IC50", "procedure": "2. Enzyme Assays for the Inhibition of Trypsin\nas §1\nTrypsin assay buffer: 2 mM CaCl2, 50 mM Tris/Cl pH 8.0.\n3 mM Z-Val-Gly-Arg-pNA (Chromzyme TRy) dissolved in H2 O.\n6 μg/ml of purified bovine pancreatic trypsin dissolved in trypsin assay buffer.\nInhibitors to be tested were dissolved in H2 O, methanol or DMSO just prior to use.\nTo each well in a 96-well microtiter plate, 270 μl of assay buffer was added. Bovine trypsin (10 μl of 6 μg/ml) was added. Inhibitor (10 μl ) was added, mixed, and then incubated at room temperature for 3 min. The enzymic reaction was started with 10 μl of 3 mM Z-Val-Gly-Arg-pNA substrate. The change in optical density was measured at 405 nm at room temperature. A kinetic microplate reader (Molecular Devices Corporation Vmax) was used to measure the change in optical density over time.\nResults are reported in Table 1 as IC50 values, i.e., the drug concentration in mole/liter which caused 50% inhibition of the enzyme activity (after incubation of the drug with the enzyme for 3 min)."}},
  "note": "Where “and” joins values, the source holds several entries; their conditions need not be identical. Equal values may be shown once. Where a name gives a salt, the structure may show the parent alone.",
  "data": [
    {"smiles": "CC(=O)N1C(=O)[C@@H](CCCNC(=N)N)[C@@H]1C(=O)N1CCCCC1", "note": "(relative stereo) [Compound XI, trans-4-(1-Piperidinocarbonyl)-3-guanidinooropyl-1-acetyl-2azetidinone hydrochloride salt]", "values": [
      {"measurement": "Thrombin Induced Clotting Time (1:1 Control Plasma), terminated samples", "setting": "[1]; 0.5 hr. post dose, plasma diluted 1:1 with control rat plasma", "value": "term. (\"terminated sample\" where a clot was unable to form after approximately 99 seconds)"},
      {"measurement": "Thrombin Induced Clotting Time (1:4 Control Plasma)", "setting": "[1]; 0.5 hr. post dose, hydrochloride salt, 50 mg/kg, in s", "value": "18.0 and 17.7 and 32.4"},
      {"measurement": "Thrombin Induced Clotting Time, terminated samples", "setting": "[1]; 0.5 hr. post dose", "value": "term. (\"terminated sample\" where a clot was unable to form after approximately 99 seconds)"},
      {"measurement": "Thrombin Induced Clotting Time (1:1 Control Plasma)", "setting": "[1]; 2 hr. post dose, plasma diluted 1:1 with control rat plasma, in s", "value": 45.7},
      {"measurement": "Thrombin Induced Clotting Time (1:4 Control Plasma)", "setting": "[1]; 2 hr. post dose, in s", "value": 14.0},
      {"measurement": "Thrombin Induced Clotting Time, terminated samples", "setting": "[1]; 2 hr. post dose", "value": "term. (\"terminated sample\" where a clot was unable to form after approximately 99 seconds)"},
      {"measurement": "Thrombin Induced Clotting Time", "setting": "[1]; 2 hr. post dose, hydrochloride salt, 50 mg/kg", "value": "17.2 s and 14.7 s"},
      {"measurement": "Thrombin Induced Clotting Time", "setting": "[1]; 5 hr. post dose, hydrochloride salt, 50 mg/kg", "value": "13.1 s and 11.4 s and 11.5 s"},
      {"measurement": "Clotting time ex vivo, result in words", "setting": "[1]; three rats per group", "value": "prolonged clotting time"},
      {"measurement": "IC (2-fold clotting time)", "setting": "human α-thrombin [2]", "value": 0.5, "unit": "µM"},
      {"measurement": "IC50", "setting": "human α-thrombin [3]; 3 min incubation of drug with enzyme, room temperature", "value": 90, "unit": "nM"},
      {"measurement": "Thrombin k2 /ki (second order rate constant for inactivation of the enzyme)", "setting": "human α-thrombin [3]; human α-thrombin, s-2238, pH 7.4, room temperature", "value": "4.2 × 10^5 m^-1 min^-1"},
      {"measurement": "IC50", "setting": "[4]", "value": 9, "unit": "nM"}
    ]}
  ]
}
